Measurements as given in patent US20230405003A1, “APPLICATION OF THYMIDINE DERIVATIVE IN PREPARATION OF DRUGS” (ONQUALITY PHARMACEUTICALS CHINA LTD., priority 2020, published 2023).
Read-outs that look alike come from different tables or passages of the source.

Legend:
[1] = tested on: blood cells; assay: Blood cell count after 5-FU diarrhea experiment in mice; assay type: in vivo, mouse; conditions: orbital blood after 5-FU 70 mg/kg/d i.p. three days
Source text: After completion of the experiments, the mice in the 5-FU control group and the experimental group were subject to blood collection at orbital. Blood cells were counted.

[2] = tested on: pain in capecitabine hand-foot syndrome rats; assay: Pain of hand-foot syndrome, mechanical sensitivity in rats (von Frey); assay type: in vivo, rat; conditions: capecitabine 4000 mg/kg hand-foot syndrome rats; thymidine derivative 3%
Method: According to the method of Examples 91-115, after administration of a thymidine derivative (at a concentration of 3%) and co-administration of a thymidine derivative (at a concentration of 1%) with a uridine derivative (at a concentration of 3%) to rat hand-foot syndrome models constructed from 4000 mg/kg of capecitabine for a period of time, pain analysis was performed on the rats, and the pain assessment model was mechanical sensitivity in rats (von Frey). The experimental steps were as follows: first, the rats were allowed to adapt in the room for 1 hour, then the rats were placed in an observation box with a metal mesh floor, and the mice were allowed to stay in the box for 20 minutes to adapt to the experimental platform. Next, a von Frey device was used to detect paw pain by stimulating the surface of the rat's palm with specially designed cilia to detect the mechanical sensitivity of the animal at strength of 0.4 g, 0.8 g, 1.5 g, 2.5 g, 4 g, 8 g, 10 g and 20 g (IITC Life Science, Woodland Hills, 2390 series). […] The rat movement response was considered to be a vague response, in which case the stimulation experiment was repeated.

[3] = tested on: HaCaT cells; assay: Relief of 5-FU proliferative toxicity to HaCaT cells (CCK-8 cell survival); assay type: cell-based; conditions: 5-Fu 20 μM, HaCaT cells
Method in brief: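 HaCaT keratinocytes (5000–10000/well) cultured 24 h, then exposed 48 h to 5-FU alone or with thymidine derivative, or thymidine plus uridine derivative mix, versus solvent-matched blanks. Survival by CCK-8; value is % increase in survival over 5-FU alone, t-test.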

[4] = tested on: hand-foot syndrome caused by Doxorubicin in rats; assay: Rat model of hand-foot syndrome caused by doxorubicin, gel application; assay type: in vivo; conditions: Doxorubicin 7 mg/kg tail intravenous injection once every three days for 20 days, gel 3 wt%, 30 days
Method: (§1) After SD rats were fed and adapted for one week (about 200 g), the rats were divided into groups, with 10 rats in each group. Then, the rats were subject to gavage administration. Capecitabine was dissolved in a 1:1 mixed solution of castor oil and ethanol and diluted for three times with PBS buffer. After gavage, the rats were fixed with a fixed cylinder, and a gel of thymidine derivative (or a compounded gel of thymidine derivative and uridine derivative) was applied to double hind paws (about 1 cm*3 cm) of the rats in group of administration (the types and concentrations are shown in Table 4), and a blank gel was applied to the group of blank (as a blank control). After approximately 4 hours of application, the rats were released after 4 hours, wiped with clean water to remove any residual drug at the application site, and allowed back to the cage. The thymidine derivative gel (or the compounded gel of thymidine derivative and uridine derivative) was administered with gavage every day. The gavage and application tests are repeated daily until the group of blank has developed obvious hand-foot syndrome.
The effects of thymidine derivative or a combination of thymidine derivative and uridine derivative on the chemotherapeutic drug-induced hand-foot syndrome in a rat model were tested according to the method in Examples 30-40. At the same time, paws of rats after treatment with the drug were taken and observed for their inflammation by hematoxylin-eosin staining (HE) and immunohistochemical staining (IHC).
The test thymidine derivative or the combination of thymidine derivative and uridine derivative, as well as the final concentration of the test compounds were shown in Table 8. Table 8 lists the animal experiment combination of a chemotherapeutical drug and the thymidine derivative gel (or the compound gel of thymidine derivative and uridine derivative) and the corresponding experimental results (wherein, the data in the column of control rate=the occurrence rate of hand-foot syndrome in Group of blank—the occurrence rate of hand-foot syndrome in Group of administration).

[5] = tested on: hand-foot syndrome caused by capecitabine in SD rats; assay: Rat model of hand-foot syndrome caused by capecitabine, gel application; assay type: in vivo; conditions: Rattus norvegicus, topical, 960 h, rats, capecitabine 4000 mg/kg once daily, 40 days; for inhibition in vivo at 3 %: gel 3 wt%; for inhibition in vivo at 5 %: gel 5 wt%
Method: A rat animal model was established. 6-week aged female SD rats were administered with capecitabine by daily gavage. The degree of hand-foot syndrome in paws is similar, and there was no difference between the left and right paws. Similar to the human body, rats developed hand-foot syndrome after oral administration of capecitabine. The causes of the two are the same, and the disorder is also very similar. Therefore, rats are very good animal models for simulating the hand-foot syndrome caused by capecitabine.
as §1
Table 4 lists the combinations of animal experiments of capecitabine and the thymidine derivative gel (or the compounded gel of thymidine derivative and uridine derivative) and the corresponding experimental results (wherein, the data in the column of control rate=the occurrence rate of hand-foot syndrome in group of blank—the occurrence rate of hand-foot syndrome in group of administration). […]

[6] = tested on: human colon cancer cell HCT116 xenograft; assay: Effect of thymidine derivative gel on therapeutical effect of capecitabine, HCT116 xenograft nude mice; assay type: in vivo, mouse; conditions: oral capecitabine 1.5 mmol/kg, 14 days
Method: A BALB/C nude mouse (human colon cancer cell HCT116 xenograft) model was established. After the model was stable, the model mice were divided into four groups (in which the average tumor size of each of the 4 groups was kept as consistent as possible). Except the blank group (containing 5 mice), there were 10 mice in each group, which were subject to gavage and application experiments.
Capecitabine was dissolved in a mixed solution of castor oil:ethanol=1:1 (volume ratio). Prior to gavage, the mixture was diluted with PBS to the desired concentration (diluted for about 3 times with PBS solution). […]
A: Group of blank: 5 mice with tumors, no gavage and no drug application; B: blank group: 10 mice with tumors, oral gavage with capecitabine (1.5 mmol/kg), application with blank gel on the back (once per day for 14 days); C: 0.5% T1 group: 10 mice with tumors, oral gavage of capecitabine, application with 0.5% T1 gel (administration method and frequency are the same as those in group B); D: 2% T1 gel group: 10 mice with tumors, oral gavage of capecitabine, application of 2% T1 gel (administration method and frequency are the same as those in group B). […] The tumor size was measured and recorded every 2 days. After 14 days of the experiment, the mice were dissected to take out the tumor, which was weighed and recorded.

[7] = read-out: Control Rate Forepaws
[8] = read-out: Control Rate Hindpaws

Compound: O=c1[nH]cc(F)c(=O)[nH]1 [5-FU, fluorouracil (5-FU)]
- blood cells [1]: can reduce all the blood cells that could be detected

Compound: COc1ccc2cc([C@@H](C)C(=O)OC[C@H]3O[C@@H](n4cc(C)c(=O)[nH]c4=O)C[C@@H]3O)ccc2c1 [T41]
- pain in rats (von Frey mechanical sensitivity) [2]: could significantly improve pain in rats
- Cell Survival Rate (increased percentage of cell survival compared with the Group of 5-FU) ([3]; selected compound final concentration 12.5 μM): 39%-46%
- Cell Survival Rate (increased percentage of cell survival compared with the Group of 5-FU) ([3]; selected compound final concentration 25 μM): 47%-55%
- Cell Survival Rate (increased percentage of cell survival compared with the Group of 5-FU) ([3]; selected compound final concentration 50 μM): 44%-51%
- Control Rate Forepaws [4]: 57.14%
- Control Rate Hindpaws [4]: 42.86%
- inhibition in vivo at 3 % [5, 7]: 50%
- inhibition in vivo at 3 % [5, 8]: 62.5%
- inhibition in vivo at 5 % [5, 7]: 50%
- inhibition in vivo at 5 % [5, 8]: 75%

Compound: CCCCCOC(=O)Nc1nc(=O)n([C@@H]2O[C@H](C)[C@@H](O)[C@H]2O)cc1F [capecitabine, reference compound]
- volume of tumor tissue versus group without capecitabine gavage [6]: significantly smaller than that in Group A
